The target in assay [1] is T1, recombinant human arginase 1 (Homo sapiens, UniProt P05089).
T1 construct: purchased Biolegend 552502
T1 sequence (P05089 1-322): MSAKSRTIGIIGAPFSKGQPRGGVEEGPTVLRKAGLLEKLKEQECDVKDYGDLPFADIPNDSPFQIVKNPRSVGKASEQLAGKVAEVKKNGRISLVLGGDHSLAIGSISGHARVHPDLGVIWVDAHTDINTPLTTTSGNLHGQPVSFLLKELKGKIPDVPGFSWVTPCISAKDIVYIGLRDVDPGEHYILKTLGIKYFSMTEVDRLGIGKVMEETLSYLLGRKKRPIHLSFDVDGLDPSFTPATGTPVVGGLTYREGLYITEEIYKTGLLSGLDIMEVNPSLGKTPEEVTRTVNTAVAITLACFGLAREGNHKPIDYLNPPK
The assay can be described thus: Human arginase activity assay (urea measurement), arginase 1. It is filed as biochemical. The conditions noted are these: recombinant human arginase 1, pH 7.4, 37° C., 60 min; * = value for the most potent diastereoisomer or the mixture of diastereoisomers; read-out: Activity Class (ARG I). The procedure, abridged: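 Arginase activity was measured as urea formed from L-arginine over 60 min at 37 °C. Reaction stopped with oPA/NED acidic reagent and absorbance read at 530 nm after 20 min colour development. Values were background-subtracted and normalised to no-compound activity, and IC50 was derived from percent-inhibition concentration-response regression.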

The target in assay [2] is T2, recombinant human arginase 2 (Homo sapiens, UniProt P78540).
T2 construct: made in house; host or cells: CHO
T2 sequence (P78540 23-354): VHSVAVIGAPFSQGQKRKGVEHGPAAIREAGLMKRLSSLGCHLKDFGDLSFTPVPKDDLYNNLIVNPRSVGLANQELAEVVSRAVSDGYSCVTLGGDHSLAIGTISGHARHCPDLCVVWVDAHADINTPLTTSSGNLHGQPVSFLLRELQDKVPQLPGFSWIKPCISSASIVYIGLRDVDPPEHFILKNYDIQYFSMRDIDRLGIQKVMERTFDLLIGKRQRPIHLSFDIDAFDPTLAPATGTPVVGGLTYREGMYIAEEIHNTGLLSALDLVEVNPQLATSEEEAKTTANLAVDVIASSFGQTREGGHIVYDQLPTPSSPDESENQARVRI
The assay can be described thus: Human arginase activity assay (urea measurement), arginase 2. It is filed as biochemical. The following applies: for selected examples class estimated from % of inhibition at 1 μM and 100 μM, * = most potent diastereoisomer or mixture of diastereoisomers, read-out: Activity Class (ARG II). The method, boiled down:
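Recombinant CHO-expressed human arginase 2 converted 20 mM L-arginine with 150 μM MnCl2 in phosphate buffer pH 7.4 for 60 min at 37 °C. Urea was measured colorimetrically at 530 nm after background subtraction, and IC50 fitted. Some compounds were classed by % inhibition at 1 μM and 100 μM.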

Assay [3] has as its target T3, intracellular arginase in macrophages isolated from murine bone marrow (BMDM) (Mus musculus, UniProt Q61176).
T3 construct: endogenous in cells; host or cells: primary bone marrow derived macrophages from Balb/c mice, M-CSF and IL-4 treated
T3 sequence (Q61176 1-323): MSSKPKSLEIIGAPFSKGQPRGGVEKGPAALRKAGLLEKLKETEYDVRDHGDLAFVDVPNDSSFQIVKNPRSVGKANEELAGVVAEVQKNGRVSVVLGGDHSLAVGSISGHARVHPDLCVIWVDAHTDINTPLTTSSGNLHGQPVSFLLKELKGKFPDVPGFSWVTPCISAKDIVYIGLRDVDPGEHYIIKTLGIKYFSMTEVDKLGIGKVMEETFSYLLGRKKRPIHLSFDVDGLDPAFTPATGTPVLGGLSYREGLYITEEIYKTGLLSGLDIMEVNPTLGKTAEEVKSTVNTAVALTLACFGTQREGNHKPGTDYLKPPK
The assay can be described thus: Cell-based assay: intracellular arginase in bone marrow derived macrophages (BMDM), urea level. More on the design: species or system Balb/c mice. The conditions noted are these: murine BMDM with M-CSF and IL-4, urea measured 24 hours after compound; * = most potent diastereoisomer or mixture of diastereoisomers; read-out: Activity Class (BMDM). The protocol: Efficacy of Selected Examples Towards Intracellular Arginase in Macrophages Isolated from Murine Bone Marrow—Bone Marrow Derived Macrophages (BMDM)
Materials & Methods: The assay was performed according to modified literature protocol modification (Pineda-Torra I et al., Methods Mol Biol. 2015; 1339:101-9. Mia S et al. Scand J Immunol. 2014 May; 79(5):305-14). The femurs and tibias were isolated from Balb/c mice. Bones were cleaned from all attached tissues by using sterile swab without affecting the bone structure. Bones were sterilized by immersion in 70% ethanol for 5 min and then rinsed in PBS. The sides of the bones were cut off and flush with cold sterile PBS by using 26-G needle S into a 50 mL sterile tube with a cell strainer (Falcon™, Cat. No. U00149), until bone cavity appeared white. Then the cells were centrifuged (5 min at 500×G, 4° C.), washed twice with PBS and counted. Cells were plated in Petri dish in density of 1×10^6/mL and cultured in DMEM (Gibco, Cat. No. 31331-029) with 10% FBS, 1% pen-strep and 50 ng/mL M-CSF (PeproTech, Cat. No. 315-02), (37° C., 5% CO2). After five days cells were subcultured into P96 plate (BD, Cat. No. 353072) in density of 64 000 cells/well in medium supplemented with 50 ng/mL M-CSF and 20 ng/mL IL-4 (Biomibo Cat. No. 214-1). One day later exemplary compounds (dissolved in PBS) were added in several different concentrations and 24 hours later the level of urea was measured in each well (Jung D et al., Clin Chem. 1975, 21(8):1136-40). The concentration of urea in the absence of any compound was considered as the maximum. The absorbance of cell culture media (background) was subtracted from all the values.
For selected examples the activity class for ARG2 was estimated based on % of inhibition for 1 μM and 100 μM concentration of tested compounds.

Counter-ions that a name gives are not always drawn.

`NC[C@@H]1C[C@@H](CCB(O)O)CC(N)(C(=O)O)C1` (mixture of isomers) [Example 54, rac-(3R,5R)-1-amino-3-(aminomethyl)-5-(2-boronoethyl)cyclohexanecarboxylic acid dihydrochloride]: the IC50 in assay [1] was 0.1 to 1 µM; in assay [2], 1 to 10 µM; in assay [3], 10 to 100 µM.

`N[C@@]1(C(=O)O)COC[C@@H](CCB(O)O)C1` (racemic) [Example 61, rac-(3R,5S)-3-amino-5-(2-boronoethyl)tetrahydro-2H-pyran-3-carboxylic acid hydrochloride]: the IC50 in assay [1] was 0.1 to 1 µM; in assay [2], 1 to 10 µM; in assay [3] it was 1 to 10 µM.

Turning to `NC1CCC(CCB(O)O)CC1(N)C(=O)O` (single isomer, unassigned) [Example 48, 1,2-diamino-5-(2-boronoethyl)cyclohexanecarboxylic acid dihydrochloride], the IC50 in assay [1] was 0.1 to 1 µM; in assay [2], 0.1 to 1 µM; in assay [3], 10 to 100 µM.

As for `CNC1(C(=O)O)C[C@H](CCB(O)O)CCC1CN` (single isomer, unassigned) [Example 68, dihydrochloride], the IC50 in assay [1], in assay [2] and in assay [3] was 10 to 100 µM in each case.

Consider `N[C@@H](CCCCB(O)O)C(=O)O` [Comparative example 1, reference compound], for which the IC50 is 0.1 to 1 µM in assay [1], 1 to 10 µM in assay [2] and 1 to 10 µM in assay [3].

Consider `NC(CCCCB(O)O)(CCNCCCc1ccc(Cl)cc1Cl)C(=O)O` (stereo not drawn) [Comparative example 2, reference compound], for which the IC50 was 0.001 to 0.1 µM in assay [1], 0.1 to 1 µM in assay [2] and 1 to 10 µM in assay [3].

As for `N[C@@](CCCCB(O)O)(C(=O)O)C1CCN(Cc2ccc(Cl)c(Cl)c2)CC1` [Comparative example 3, reference compound], the IC50 in assay [1] is 0.001 to 0.1 µM; in assay [2], 0.1 to 1 µM; in assay [3], 1 to 10 µM.

As for `NCC1CCC(CCB(O)O)CC1(N)C(=O)O` (stereo not drawn) [Example 24, 1-Amino-2-(aminomethyl)-5-(2-boronoethyl)cyclohexane-1-carboxylic acid], the IC50 in assay [1] was 0.001 to 0.1 µM; in assay [2], 0.1 to 1 µM; in assay [3], 10 to 100 µM.

As for `CN(C)C[C@@H]1CC[C@@H](CCB(O)O)C[C@]1(N)C(=O)O` [Example 38, (1R,2S,5R)-1-amino-5-(2-boronoethyl)-2-((dimethylamino)methyl)cyclohexanecarboxylic acid], the IC50 in assay [1], in assay [2] and in assay [3] was 0.001 to 0.1 µM each time.

On to `CNC[C@@H]1CC[C@@H](CCB(O)O)C[C@]1(N)C(=O)O` [Example 39, (1R,2S,5R)-1-amino-5-(2-boronoethyl)-2-((methylamino)methyl)cyclohexanecarboxylic acid dihydrochloride], for which the IC50 in assay [1] is 0.001 to 0.1 µM; in assay [2] it was 0.001 to 0.1 µM; in assay [3] it was 0.1 to 1 µM.

Take `CN(C)C[C@@H]1CC[C@@H](CCB2O[C@H]3C[C@H]4C[C@H](C4(C)C)[C@@]3(C)O2)C[C@]1(N)C(=O)O` [Example 44, (1R,2S,5R)-1-amino-2-((dimethylamino)methyl)-5-(2-((3aR,4R,6R,7aS)-3a,5,5-trimethylhexahydro-4,6-methanobenzo[d][1,3,2]dioxaborol-2-yl)ethyl)cyclohexane-1-carboxylic acid dihydrochloride]: the IC50 in assay [1], in assay [2] and in assay [3] was 0.001 to 0.1 µM throughout.

Regarding `CC1(C)[C@H]2C[C@@H]3OB(CC[C@@H]4CC[C@@H](CN5CCCC5)[C@@](N)(C(=O)O)C4)O[C@]3(C)[C@@H]1C2` [Example 45, (1R,2S,5R)-1-amino-2-(pyrrolidin-1-ylmethyl)-5-(2-((3aR,4R,6R,7aS)-3a,5,5-trimethylhexahydro-4,6-methanobenzo[d][1,3,2]dioxaborol-2-yl)ethyl)cyclohexanecarboxylic acid dihydrochloride], the IC50 in assay [1] is 0.001 to 0.1 µM; in assay [2] it was 0.1 to 1 µM; in assay [3], 0.001 to 0.1 µM.

On to `NC1(C(=O)O)C[C@H](CCB(O)O)CCC1CCN1CCCC1` (stereo partly drawn) [Example 46, (5R)-1-amino-5-(2-boronoethyl)-2-(2-(pyrrolidin-1-yl)ethyl)cyclohexanecarboxylic acid dihydrochloride], for which the IC50 in assay [1] was 0.001 to 0.1 µM; in assay [2], 0.001 to 0.1 µM; in assay [3], 0.1 to 1 µM.

As to `CC1(O)CCC(CCB(O)O)CC1(N)C(=O)O` (stereo not drawn) [Example 50, 1-amino-5-(2-boronoethyl)-2-hydroxy-2-methylcyclohexanecarboxylic acid hydrochloride], the IC50 was 0.1 to 1 µM in assay [1], 0.1 to 1 µM in assay [2] and 10 to 100 µM in assay [3].

Regarding `NC1(C(=O)O)CC(CCB(O)O)CC=C1Cc1ccc(Cl)cc1` (stereo not drawn) [Example 53, 1-amino-5-(2-boronoethyl)-2-(4-chlorobenzyl)cyclohex-2-enecarboxylic acid hydrochloride], the figures for the IC50 in assay [1], in assay [2] and in assay [3] were 0.1 to 1 µM, 1 to 10 µM and 1 to 10 µM, respectively.

As for `NC1CC(CCB(O)O)CC(N)(C(=O)O)C1` (stereo not drawn) [Example 56, 1,3-diamino-5-(2-boronoethyl)cyclohexanecarboxylic acid dihydrochloride], the IC50 in assay [1] is 1 to 10 µM; in assay [2], 0.1 to 1 µM; in assay [3], above 100 µM.

As for `NC1CC(CCB(O)O)CC1(N)C(=O)O` (stereo not drawn) [Example 62, 1,2-diamino-4-(2-boronoethyl)cyclopentanecarboxylic acid dihydrochloride], the IC50 in assay [1] is 1 to 10 µM; in assay [2] it was 0.1 to 1 µM; in assay [3], 10 to 100 µM.

Regarding `CN(C)C1CC(CCB(O)O)CC(N)(C(=O)O)C1` (stereo not drawn) [Example 65, 1-amino-3-(2-boronoethyl)-5-(dimethylamino)cyclohexane-1-carboxylic acid dihydrochloride], the IC50 is 10 to 100 µM in assay [1], 10 to 100 µM in assay [2] and above 100 µM in assay [3].

As for `CCN(C)C[C@@H]1CC[C@@H](CCB(O)O)C[C@]1(N)C(=O)O` [Example 69, (1R,2S,5R)-1-amino-5-(2-boronoethyl)-2-((ethyl(methyl)amino)methyl)cyclohexane-1-carboxylic acid], the values for the IC50 in assay [1], in assay [2] and in assay [3] were 0.001 to 0.1 µM, 0.001 to 0.1 µM and 0.1 to 1 µM, respectively.

These data come from patent US12053451B2, “Arginase inhibitors and their therapeutic applications” (OncoArendi Therapeutics S.A., priority 2016, dated 2024).
